Structures are written as SMILES. pIC50, pKi: −log10 of the molar value.

One data set relates to SK-MEL-5 cells. As to the kind of experiment: Cytotoxicity, MTS assay after 3 days. In kind it is cell-based. The note with it: 3 days incubation, read-out: IC50 against SK-MEL-5 cells. Here is the method:
Briefly, cells were plated at 1500 (SK-MEL-5) or 5000 (MDA) cells/well in a 96-well plate and allowed to adhere for 1 day. The indicated analogues were added and the cells were incubated for 3 days, when cell growth was evaluated by MTS assay (Promega). Vertical axis represents cell number as a % of no drug treatment controls. Additionally, significant activity was seen against PC-3 cells (see FIGS. 4 and 11).

Data set [1] concerns MDA-MB-231 cells. As to the kind of experiment: Cytotoxicity, MTS assay after 3 days. Type of data set: cell-based, human. The note with it: for pIC50: 3 days incubation, MTS, determined by the inventors, read-out: IC50 against MDA cells. In general terms: Tetrazolium assays rely on reduction of a dye to a coloured formazan, in cell work by metabolically active cells.
Procedure: After a total of 3-days, cell growth was evaluated by MTS assay (Promega).
The subject of data set [2] is PC-3 cells. As to the kind of experiment: Cytotoxicity / cell growth, MTS assay. The settings on record: for inhibition of growth of PC-3 cells: 3 days; for pIC50: determined by the present inventors. Type of data set: cell-based, human. Here is the method: Involvement of the pro-apoptotic caspase-3 enzyme in the action of OR 1313 is shown by the experiment represented in FIG. 10. Briefly, PC-3 cells were plated at 1000 cells/well in a 96-well plate and allowed to adhere for 1 day. 10 μM of ORI 1313 and 0, 5, or 15 μM Z-DEVD-fmk, a caspase inhibitor, were added and the cells were incubated for 3 days. Cell growth was evaluated by MTS assay (Promega). Vertical axis represents cell number as a % of no drug treatment controls.

The test system of a further data set is MDA cells. Description: NCI 60-cell line screen. In kind it is cell-based, human. The note with it: determined by NCI. Here is the method:
(§1) ORI 1313 and ORI 1327 were evaluated by the National Cancer Institute (NCI) with a 60-cell line screen.

Data set [3] concerns PC-3 cells. Description: NCI 60-cell line screen. In kind it is cell-based, human. The note with it: determined by NCI. How it is done:
as §1

Another data set concerns melanoma cell lines. As to the kind of experiment: NCI 60-cell line screen. In kind it is cell-based. The settings on record: 8 melanoma lines. Here is the method:
as §1

Data set [4] has as its system MDA-MB-231 cells. As to the kind of experiment: Cell cycle analysis by FACS (propidium iodide), apoptotic fraction. Type of data set: cell-based, human. Here is the method:
Cell cycle analysis was performed using fluorescent activated cell sorter (FACS) analysis on polyamine analogue treated MDA cells (see FIGS. 7A-7C). Briefly, MDA-MB-231 cells were grown in the presence of ORI 1313 or ORI 1327 for various times then fixed with ethanol and stained with propidium iodide. Cells were analyzed by FACS, with the areas on the histograms designating DNA content and cell cycle stage: M1, G1; M2, S; M3, G2/M; M4, <2N (apoptotic cells).
In general terms: In flow cytometry, cells or beads pass a laser one at a time.

For data set [5], the system named is MES-SA/Dx5 uterine sarcoma cell line. As to the kind of experiment: Growth inhibition of multi-drug resistant cells, MTS assay. In kind it is cell-based, human. The settings on record: inferred from parent vs MDR-1 expressing line. Here is the method:
An unexpected observation made during the cellular characterization of ORI 1313 and ORI 1327 was their growth inhibitory activity against the multi-drug resistant (MDR) uterine sarcoma cell line, MES-SA/Dx5 (see FIGS. 8A and 8B). Briefly, cells were plated at 1000 cells/well in a 96-well plate and allowed to adhere for 1 day. The indicated analogue was added and the cells were incubated for 3 days when cell growth was evaluated by MTS assay (Promega). Vertical axis represents cell number as a % of no drug treatment controls
The MES-SA/Dx5 cell line was developed by selection on doxorubicin and over-expresses the mRNA of the multi-drug resistance gene (MDR-1). The cells are thus much less sensitive to drugs exported via P-glycoprotein (P-gp). See Harker, W. G. et al. Multi-drug (pleiotropic) resistance in doxorubicin-selected variants of the human sarcoma cell line MES-SA. Cancer Research, 1985, 45, 4091-4096. […] This will be particularly advantageous in situations involving target cells expressing MDR-1.

Data set [6] concerns cellular polyamine levels. As to the kind of experiment: Intracellular polyamine levels by HPLC. In kind it is cell-based. The note with it: 11 hr treatment. Here is the method: To determine the effects of treatment with polyamine analogues on cellular polyamine levels, intracellular polyamine levels were measured by high performance liquid chromatography (HPLC) after 11 hr treatment with ORI 1313 (32 μM) or ORI 1327 (3 μM). […] This observation is consistent with the previous observations in the field.

The next data set concerns cell growth. As to the kind of experiment: Co-treatment experiments on analogue cytotoxicity. In kind it is cell-based. The note with it: for effect of co-treatment with DFMO on results: 1 mM DFMO; for effect of co-treatment with putrescine on cytotoxic effects: 50-fold excess concentration of putrescine; for effect of co-treatment with ORI 1202 on inhibition of cell growth: polyamine transport inhibitor ORI 1202.

The subject of data set [7] is putrescine uptake into MDA cells. As to the kind of experiment: Inhibition of 3H-putrescine uptake. The settings on record: read-out: Kiapp versus putrescine uptake into MDA cells. Type of data set: cell-based, human.
For data set [8], the system named is putrescine uptake into PC-3 cells. Description: Inhibition of 3H-putrescine uptake. In kind it is cell-based, human. The settings on record: read-out: Kiapp versus putrescine uptake into PC-3 cells.
Data set [9] has as its system A375 human melanoma xenografts. As to the kind of experiment: A375 human melanoma xenograft in nude mice. Type of data set: in vivo. For orientation: In xenograft studies the graft and the host belong to different species.
Procedure: ORI was tested in a melanoma tumor xenograft tumor models in BALB/c nude mice. […] The xenograft efficacy study would be performed with two drug concentrations. There were four groups of 10 mice. Treatment groups received the maximum tolerated dose (MTD) or ½ MTD of each analogue. […] A positive control group treated with dacarbazine DTIC (dosage of 180 mg/kg i.p. once per day for 5 days) was used to validate this tumor model system.
Female BALB/c nu/nu athymic mice weighing 20 grams were the animal host for the human xenografts. The method of administration was i.p. injections with 9 mM or 4 mM ORI 1313 once daily for the duration of the study (end point when control tumors reached 2000 mg). […] DITC was administered by i.p. injection once daily for 5 days. Treatment started when the tumors reach 5 mm×5 mm size (50 mg). The mouse weight and tumor size were measured twice weekly. The tumor measurements by calipers were then converted to mg tumor volume by the formula L^2×W/2. Once the control tumors reached 2000 mg both the control and treatment group mice were weighed, sacrificed and the tumors removed. The actual weights of tumors were then used to calculate the percent growth inhibition by each analogue using the formula: % growth inhibition=(mean treated tumor weight/mean control tumor weight×100)−100.
For data set [10], the system named is A375 human melanoma cell line. As to the kind of experiment: Cytotoxicity against A375 cell line. Type of data set: cell-based.
Data set [11] has as its system BALB/c mice. The note with it: mouse, in vivo, ip.
Procedure: (§2) Chronic toxicities were evaluated by giving i.p. injections once daily for 5 consecutive days.
The subject of data set [12] is BALB/c mice. The note with it: mouse, in vivo, ip. This is another data set of the same source.
Procedure: as §2
Data set [13] deals with BALB/c mice. As to the kind of experiment: Acute toxicity, single i.p. injection.
Procedure: as §2
Data set [14] relates to BALB/c mice. Description: Chronic toxicity, i.p. once daily for 5 consecutive days.
Procedure: as §2
Data set [15] deals with [1,4-14C]-putrescine uptake. The note with it: Frydman et al.; cited from earlier work.
Data set [16] deals with putrescine uptake into MDA cells. The note with it: read-out: Km for uptake into MDA cells; previously shown; cited from earlier work.

As for `c1ccc2c(CNCCCCNCc3cccc4ccccc34)cccc2c1` [ORI 1313], the pIC50 (usually −log10 of the IC50, conventionally taken in molar units) in the data set on SK-MEL-5 cells was 5.39; in the data set with MDA-MB-231 cells [1] it was 4.92; in the data set on PC-3 cells [2], 4.70; with MDA cells, 5.64; in the data set on PC-3 cells [3], 4.95; in data set [10], 5.39. Moreover, the “increase over N1,N4-dibenzylputrescine in potency of cytotoxic activity against MDA cells” value in the data set with MDA-MB-231 cells [1] was found to be 16 fold. Further, the “inhibition of growth of PC-3 cells” value with PC-3 cells [2] (10 μM ORI 1313 + 5 μM Z-DEVD-fmk) stood at 19%; with PC-3 cells [2] (10 μM ORI 1313 + 15 μM Z-DEVD-fmk), 10%; in the data set with PC-3 cells [2] (10 μM ORI 1313 alone) it was 46%. The “effectiveness against melanoma cell lines tested” value in the data set on melanoma cell lines is given as 6 of 8. The “<2N DNA content (apoptotic fraction)” value in the data set on MDA-MB-231 cells [4] (32 μM, 11 hr treatment) is listed as 21%; in the data set with MDA-MB-231 cells [4] (32 μM, 24 hr treatment), 49%; in the data set on MDA-MB-231 cells [4] (32 μM, 48 hr treatment), 30%. Besides, in [5], the “substrate for the P-gp multi-drug exporter” value is on record as “not substrates”. In addition, the “effect on cellular polyamine levels” value in data set [6] (32 μM) is listed as “no significant effects”. Besides, in the data set on cell growth, the “effect of co-treatment with DFMO on results” value is “did not alter”. The “effect of co-treatment with putrescine on cytotoxic effects” value in the data set with cell growth is “did not block”. Moreover, the “effect of co-treatment with ORI 1202 on inhibition of cell growth” value in the data set with cell growth is listed as “did not alter”. Besides, the pKi in data set [7] was 4.55; in data set [8], 4.62. Besides, the “adverse findings in xenograft study” value in data set [9] (after 7 weeks of treatment) is “transient skin ulceration and weight loss”. Besides, the tumor growth inhibition in data set [9] (at 25 days, vs 5% dextrose control, i.p. once daily) is recorded as 36%. Also, in data set [9] (i.p. once daily, nude mice), the “tolerability in xenograft study” value is reported as “well tolerated up to 7 weeks”. For the same compound, the tumor growth delay in data set [9] (vs 5% dextrose control, i.p. once daily) was 6.2 days. Further, where the note is “dihydrochloride salt, in 5% DMSO”, the solubility entry is “at least 40 mM”. The “tolerated dose, acute” value in the data set with BALB/c mice [11] was 93 mg/kg. The “approximate maximum tolerated dosage” value in the data set with BALB/c mice [12] was about 40 mg/kg. For the same compound, the “tolerated dose, chronic” value with BALB/c mice [12] is on record as 40 mg/kg. Also, in the data set on BALB/c mice [13], the “dose that caused death, acute” value is reported as 186 mg/kg. The “lethal dosage, chronic” value in the data set on BALB/c mice [14] is given as 80 mg/kg.

For `c1ccc(N(c2ccccc2)c2ccc(CNCCCCNCc3ccc(N(c4ccccc4)c4ccccc4)cc3)cc2)cc1` [ORI 1327], the negative logarithm of the IC50 (pIC50) in the data set on SK-MEL-5 cells was 6.15. For the same compound, in the data set with MDA-MB-231 cells [1], the pIC50 was 6.19 and the “increase over N1,N4-dibenzylputrescine in potency of cytotoxic activity against MDA cells” value was 295 fold. This compound had a negative-log IC50 (pIC50) in the data set on PC-3 cells [2] of 6.19. The same compound had a pIC50 in the data set on MDA cells of 8.30. In the data set with PC-3 cells [3], this compound had a negative-log IC50 (pIC50) of 6.09. Moreover, the “<2N DNA content (apoptotic fraction)” value in the data set on MDA-MB-231 cells [4] (3 μM, 11 hr treatment) is recorded as 15%. The “substrate for the P-gp multi-drug exporter” value in [5] is given as “not substrates”. For the same compound, the “effect on cellular polyamine levels” value in data set [6] (3 μM) was “no significant effects”. Besides, in the data set on cell growth, the “effect of co-treatment with DFMO on results” value is listed as “did not alter”, the “effect of co-treatment with putrescine on cytotoxic effects” value is “did not block” and the “effect of co-treatment with ORI 1202 on inhibition of cell growth” value is given as “did not alter”. Also, the pKi in data set [8] is 4.84. Moreover, where the note is “dihydrochloride salt”, the “solubility relative to lactate salt” value is reported as “less soluble”. The compound also displayed a solution concentration produced (hydroxypropyl-β-cyclodextrin, 45% w/v HβC in H2O) of 40 mM. Under “lactate salt, aqueous”, the maximum solubility was determined as 5000 µM. Moreover, the “tolerated dose, acute” value in the data set with BALB/c mice [11] came out at 37 mg/kg. Also, in the data set with BALB/c mice [12], the “approximate maximum tolerated dosage” value is recorded as about 7.5 mg/kg and the “tolerated dose, chronic” value turned out to be 7.5 mg/kg. Further, in the data set on BALB/c mice [13], the “dose that caused death, acute” value was 75 mg/kg. Further, the “lethal dosage, chronic” value in the data set on BALB/c mice [14] is listed as 30 mg/kg.

For `c1ccc(CNCCCNCc2ccccc2)cc1` [N^1, N^3-dibenzyl analog of 1,3-diaminopropane, reference compound], in the data set on MDA-MB-231 cells [1], the pIC50 is 4.54.

`NCCCCN` [Putrescine, 1,4-diaminobutane]: the “Kmapp, putrescine uptake” value in data set [15] is 5.2 ± 0.6 µM. Further, the Km (usually the concentration of substrate that gives half-maximal velocity) in data set [16] was 12.4 µM.

Source of the values: patent publication US6872852B2, “Polyamine analogues as cytotoxic agents” (MediQuest Therapeutics, Inc., priority 2000, dated 2005).
